Reference: the NIST ThermoML archive (doi:10.1016/j.jct.2013.05.051)

Test: xn = mol fraction of the nth substance listed
Settings: Liquid, Vibrating tube method

CCCCCCCO [heptan-1-ol] + CCCCCCC
mass density [kg/m3]
Settings	x1 = 0.1493	x1 = 0.3215	x1 = 0.5226	x1 = 0.6698	x1 = 0.8469	x1 = 1
373.15 K, 50000 kPa	691.2	709.3	735.5	755.9	786.3	800.3
373.15 K, 55000 kPa	695.1	713	739.1	759.2	789.4	803.4
373.15 K, 60000 kPa	698.8	716.6	742.4	762.4	792.4	806.3
373.15 K, 65000 kPa	702.3	720.1	745.7	765.5	795.5	809.2
373.15 K, 70000 kPa	705.7	723.2	748.8	768.5	798.2	811.9
373.15 K, 80000 kPa	712.2	729.5	754.8	774.4	803.7	817.2
373.15 K, 90000 kPa	718.3	735.4	760.4	779.8	808.9	822.3
373.15 K, 100000 kPa	723.8	740.9	765.7	784.9	813.8	827
373.15 K, 110000 kPa	729.2	746.1	770.7	789.8	818.5	831.6
373.15 K, 120000 kPa	734.3	751	775.5	794.4	822.9	835.9
373.15 K, 130000 kPa	739.1	755.7	780.1	798.9	827.3	840.2
373.15 K, 140000 kPa	743.7	760.2	784.5	803.1	831.4	844.1
393.15 K, 100 kPa	–	–	–	–	–	744.9
393.15 K, 1000 kPa	617.4	639.3	670.1	693.9	729.1	745.8
393.15 K, 5000 kPa	625	646.2	676.1	699.4	733.9	750.2
393.15 K, 10000 kPa	633.5	653.8	683	705.6	739.3	755.3
393.15 K, 15000 kPa	640.9	660.7	689.2	711.4	744.5	760.1
393.15 K, 20000 kPa	647.6	666.9	694.9	716.6	749.2	764.6
393.15 K, 25000 kPa	653.8	672.7	700.2	721.6	753.7	768.8
393.15 K, 30000 kPa	659.5	678	705.2	726.3	758	772.9
393.15 K, 35000 kPa	664.8	683.1	709.8	730.6	762.1	776.8
393.15 K, 40000 kPa	669.7	687.7	714.2	734.8	765.9	780.4
393.15 K, 45000 kPa	674.3	692.1	718.3	738.8	769.6	783.9
393.15 K, 50000 kPa	678.7	696.3	722.3	742.6	773.1	787.3
393.15 K, 55000 kPa	683	700.4	726.2	746.3	776.6	790.7
393.15 K, 60000 kPa	687	704.1	729.8	749.7	779.8	793.8
393.15 K, 65000 kPa	690.7	707.8	733.2	753.1	782.9	796.8
393.15 K, 70000 kPa	694.4	711.4	736.7	756.4	786.1	799.8
393.15 K, 80000 kPa	701.3	718.1	743.1	762.5	791.9	805.5
393.15 K, 90000 kPa	707.8	724.3	749.2	768.3	797.5	810.9
393.15 K, 100000 kPa	713.7	730.1	754.7	773.8	802.6	815.9
393.15 K, 110000 kPa	719.4	735.7	760.1	778.9	807.7	820.8
393.15 K, 120000 kPa	724.6	740.8	765	783.8	812.3	825.3
393.15 K, 130000 kPa	729.7	745.7	769.8	788.5	816.8	829.8
393.15 K, 140000 kPa	734.6	750.5	774.5	793	821.3	834
